Laboratory results published in ChEMBL document CHEMBL1201862, “PubChem BioAssay data set” (2004).
The source made the active and inactive calls.

Legend:
[1] = target: DNA repair and recombination protein RAD54-like (Homo sapiens, UniProt Q92698); test: RAD54 Holliday junction migration blockers – biochemical, fluorescence, cherry-picked samples, dose series, confirmation (AID 651657); type: functional
[2] = target: Adenosylmethionine-8-amino-7-oxononanoate aminotransferase (Mycobacterium tuberculosis, UniProt P9WQ81); test: Mycobacterium tuberculosis BioA enzyme inhibitor Measured in Biochemical System Using Plate Reader - 2163-02_Inhibitor_Dose_CherryPick_Activity.; type: functional, Mycobacterium tuberculosis UT205
Sequence of Adenosylmethionine-8-amino-7-oxononanoate aminotransferase (P9WQ81 whole entry): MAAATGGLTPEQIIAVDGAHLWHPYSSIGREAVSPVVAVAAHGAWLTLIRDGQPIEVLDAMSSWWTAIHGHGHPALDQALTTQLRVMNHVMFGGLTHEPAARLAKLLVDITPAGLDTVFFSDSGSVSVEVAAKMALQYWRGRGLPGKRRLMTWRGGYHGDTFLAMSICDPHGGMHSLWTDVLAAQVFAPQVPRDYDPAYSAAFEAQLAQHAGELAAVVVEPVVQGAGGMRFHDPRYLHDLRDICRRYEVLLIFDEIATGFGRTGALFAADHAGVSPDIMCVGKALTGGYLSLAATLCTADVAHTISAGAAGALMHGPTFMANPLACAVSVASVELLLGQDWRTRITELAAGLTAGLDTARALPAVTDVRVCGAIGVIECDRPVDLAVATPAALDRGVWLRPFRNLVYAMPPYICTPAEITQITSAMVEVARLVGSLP

Orexin receptor type 2 [3] = target: T1, Orexin receptor type 2 (Homo sapiens, UniProt O43614); test: Counterscreen assay for antagonists of the orexin 1 receptor (OX1R; HCRTR1): Homogeneous Time Resolved Fluorescence (HTRF)-based cell-based dose response assay for antagonists of the orexin 2 receptor (OX2R; HCRTR2), run by assay provider.; type: functional
T1 sequence (O43614 whole entry): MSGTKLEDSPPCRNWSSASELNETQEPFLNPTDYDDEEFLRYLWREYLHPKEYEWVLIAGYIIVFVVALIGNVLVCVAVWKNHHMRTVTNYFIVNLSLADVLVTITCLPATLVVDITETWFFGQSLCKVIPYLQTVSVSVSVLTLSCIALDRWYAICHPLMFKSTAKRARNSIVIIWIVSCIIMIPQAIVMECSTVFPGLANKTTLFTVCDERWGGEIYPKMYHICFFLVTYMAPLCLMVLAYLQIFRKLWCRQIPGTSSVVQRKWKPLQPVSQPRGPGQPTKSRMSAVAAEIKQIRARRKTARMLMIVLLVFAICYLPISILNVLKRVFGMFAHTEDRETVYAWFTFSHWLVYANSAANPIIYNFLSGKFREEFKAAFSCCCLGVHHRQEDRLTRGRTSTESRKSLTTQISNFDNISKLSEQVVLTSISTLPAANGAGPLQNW

[4] = target: T2, Orexin/Hypocretin receptor type 1 (Homo sapiens, UniProt O43613); test: Homogeneous Time Resolved Fluorescence (HTRF)-based cell-based high throughput dose response assay for antagonists of the orexin 1 receptor (OX1R; HCRTR1). [Related pubchem assays (depositor defined):AID434989, AID435008, AID463079, AID485270, AID492963, AID492964, AID492965, AID493232, AID504717, AID504718]; type: functional
T2 sequence (O43613 whole entry): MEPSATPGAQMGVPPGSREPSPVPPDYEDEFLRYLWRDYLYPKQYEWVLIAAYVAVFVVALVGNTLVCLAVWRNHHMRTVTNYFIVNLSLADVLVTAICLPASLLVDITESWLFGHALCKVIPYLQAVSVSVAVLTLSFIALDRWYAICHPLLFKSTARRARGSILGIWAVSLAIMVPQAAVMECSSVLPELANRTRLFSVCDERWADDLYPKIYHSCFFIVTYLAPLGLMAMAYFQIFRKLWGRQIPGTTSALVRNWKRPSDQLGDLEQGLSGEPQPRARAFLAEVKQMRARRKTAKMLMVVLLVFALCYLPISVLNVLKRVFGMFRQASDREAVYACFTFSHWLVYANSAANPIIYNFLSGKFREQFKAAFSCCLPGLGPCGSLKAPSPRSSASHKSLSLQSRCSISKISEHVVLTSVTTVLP

[5] = (§1) Counterscreen for antagonists of the orexin 1 receptor (OX1R; HCRTR1): Fluorescence-based cell-based high throughput dose response assay to identify antagonists of the parental CHO cell line. [Related pubchem assays (depositor defined):AID434989, AID435008, AID463079, AID485270, AID492963, AID492964, AID492965, AID493232, AID504699, AID504701]; type: functional
CHO-K1 = test: as §1, with “Homogeneous time resolved fluorescence (HTRF)-based” for “Fluorescence-based”, “cell-based” for “cell-based high throughput”, “CHO-K1” for “CHO”; type: functional; conditions: Cricetulus griseus;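 note: potency for inhibition of ATP-stimulated IP1 production as antagonists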
Orexin receptor type 2 [6] = target: T1, Orexin receptor type 2; test: Counterscreen assay for antagonists of the orexin 1 receptor (OX1R; HCRTR1): Fluorescence-based cell-based dose response assay for antagonists of the orexin 2 receptor (OX2R; HCRTR2), run by assay provider.; type: functional
[7] = target: T2, Orexin/Hypocretin receptor type 1; test: Fluorescence-based cell-based high throughput dose response assay for antagonists of the orexin 1 receptor (OX1R; HCRTR1). [Related pubchem assays (depositor defined):AID434989, AID435008, AID463079, AID485270, AID492963, AID492964, AID492965, AID493232, AID504717, AID504718]; type: functional
[8] = target: T3, Voltage-gated N-type calcium channel alpha-1B subunit/Amyloid beta A4 precursor protein-binding family A member 1 (Homo sapiens, UniProt Q00975+Q02410); type: protein assay
T3 sequence (Q00975 whole entry): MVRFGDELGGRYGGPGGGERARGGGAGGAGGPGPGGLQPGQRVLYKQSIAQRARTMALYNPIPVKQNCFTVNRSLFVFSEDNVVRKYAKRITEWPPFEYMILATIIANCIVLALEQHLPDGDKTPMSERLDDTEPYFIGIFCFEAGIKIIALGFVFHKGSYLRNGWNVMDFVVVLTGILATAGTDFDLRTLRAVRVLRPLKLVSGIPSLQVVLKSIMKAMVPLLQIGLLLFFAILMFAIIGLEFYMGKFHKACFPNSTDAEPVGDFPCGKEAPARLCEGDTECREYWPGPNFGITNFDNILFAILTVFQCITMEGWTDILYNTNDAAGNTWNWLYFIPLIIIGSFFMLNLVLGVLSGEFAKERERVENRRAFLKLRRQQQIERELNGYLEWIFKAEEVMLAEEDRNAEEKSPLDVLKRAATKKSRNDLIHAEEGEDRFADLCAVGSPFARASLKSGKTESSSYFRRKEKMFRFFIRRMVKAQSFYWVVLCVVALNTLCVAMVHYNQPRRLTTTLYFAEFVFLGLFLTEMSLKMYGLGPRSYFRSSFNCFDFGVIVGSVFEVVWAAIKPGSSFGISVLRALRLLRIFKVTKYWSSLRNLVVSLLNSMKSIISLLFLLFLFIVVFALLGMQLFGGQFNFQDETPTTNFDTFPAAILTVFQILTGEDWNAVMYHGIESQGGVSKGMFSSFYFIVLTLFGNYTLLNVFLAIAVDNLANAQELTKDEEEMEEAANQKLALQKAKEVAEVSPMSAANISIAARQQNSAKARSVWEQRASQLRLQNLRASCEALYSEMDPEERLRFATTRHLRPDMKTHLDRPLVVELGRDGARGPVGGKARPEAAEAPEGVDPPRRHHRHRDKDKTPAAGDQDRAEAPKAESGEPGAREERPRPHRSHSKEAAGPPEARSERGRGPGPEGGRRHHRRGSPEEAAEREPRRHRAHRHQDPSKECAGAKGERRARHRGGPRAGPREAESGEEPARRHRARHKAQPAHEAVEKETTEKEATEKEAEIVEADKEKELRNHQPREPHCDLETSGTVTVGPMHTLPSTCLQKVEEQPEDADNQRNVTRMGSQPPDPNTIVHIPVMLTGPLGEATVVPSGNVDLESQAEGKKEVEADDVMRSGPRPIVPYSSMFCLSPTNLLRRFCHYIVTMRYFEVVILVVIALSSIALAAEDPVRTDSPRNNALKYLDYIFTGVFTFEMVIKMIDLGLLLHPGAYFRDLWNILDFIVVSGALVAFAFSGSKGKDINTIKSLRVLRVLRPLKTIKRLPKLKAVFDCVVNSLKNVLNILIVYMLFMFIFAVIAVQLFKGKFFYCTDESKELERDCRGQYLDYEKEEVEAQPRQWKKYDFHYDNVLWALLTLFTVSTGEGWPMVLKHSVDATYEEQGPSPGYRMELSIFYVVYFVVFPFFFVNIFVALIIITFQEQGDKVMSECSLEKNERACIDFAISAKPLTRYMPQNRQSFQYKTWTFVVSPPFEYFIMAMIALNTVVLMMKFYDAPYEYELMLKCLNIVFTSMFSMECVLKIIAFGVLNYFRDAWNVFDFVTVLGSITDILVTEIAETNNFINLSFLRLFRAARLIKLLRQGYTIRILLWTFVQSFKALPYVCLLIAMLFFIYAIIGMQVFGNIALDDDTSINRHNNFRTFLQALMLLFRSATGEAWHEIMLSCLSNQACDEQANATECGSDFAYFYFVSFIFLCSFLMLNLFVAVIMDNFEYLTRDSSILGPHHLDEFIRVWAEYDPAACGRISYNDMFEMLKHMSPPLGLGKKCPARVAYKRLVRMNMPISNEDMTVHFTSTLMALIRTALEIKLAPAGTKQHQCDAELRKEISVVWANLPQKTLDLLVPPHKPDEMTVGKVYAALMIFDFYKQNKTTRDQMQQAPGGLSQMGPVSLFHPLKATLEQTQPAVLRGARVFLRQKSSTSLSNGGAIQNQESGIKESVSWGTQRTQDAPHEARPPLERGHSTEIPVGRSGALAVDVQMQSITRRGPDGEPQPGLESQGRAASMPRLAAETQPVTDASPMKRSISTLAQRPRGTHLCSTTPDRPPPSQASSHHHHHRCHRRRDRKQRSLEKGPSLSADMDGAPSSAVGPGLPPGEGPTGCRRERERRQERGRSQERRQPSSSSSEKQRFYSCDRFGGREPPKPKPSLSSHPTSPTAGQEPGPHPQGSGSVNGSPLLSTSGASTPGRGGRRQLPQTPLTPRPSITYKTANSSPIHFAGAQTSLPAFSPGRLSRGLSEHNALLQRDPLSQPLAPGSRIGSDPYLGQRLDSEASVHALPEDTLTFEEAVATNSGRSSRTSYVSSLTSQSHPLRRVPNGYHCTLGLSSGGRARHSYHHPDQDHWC
T3 sequence (Q02410 whole entry): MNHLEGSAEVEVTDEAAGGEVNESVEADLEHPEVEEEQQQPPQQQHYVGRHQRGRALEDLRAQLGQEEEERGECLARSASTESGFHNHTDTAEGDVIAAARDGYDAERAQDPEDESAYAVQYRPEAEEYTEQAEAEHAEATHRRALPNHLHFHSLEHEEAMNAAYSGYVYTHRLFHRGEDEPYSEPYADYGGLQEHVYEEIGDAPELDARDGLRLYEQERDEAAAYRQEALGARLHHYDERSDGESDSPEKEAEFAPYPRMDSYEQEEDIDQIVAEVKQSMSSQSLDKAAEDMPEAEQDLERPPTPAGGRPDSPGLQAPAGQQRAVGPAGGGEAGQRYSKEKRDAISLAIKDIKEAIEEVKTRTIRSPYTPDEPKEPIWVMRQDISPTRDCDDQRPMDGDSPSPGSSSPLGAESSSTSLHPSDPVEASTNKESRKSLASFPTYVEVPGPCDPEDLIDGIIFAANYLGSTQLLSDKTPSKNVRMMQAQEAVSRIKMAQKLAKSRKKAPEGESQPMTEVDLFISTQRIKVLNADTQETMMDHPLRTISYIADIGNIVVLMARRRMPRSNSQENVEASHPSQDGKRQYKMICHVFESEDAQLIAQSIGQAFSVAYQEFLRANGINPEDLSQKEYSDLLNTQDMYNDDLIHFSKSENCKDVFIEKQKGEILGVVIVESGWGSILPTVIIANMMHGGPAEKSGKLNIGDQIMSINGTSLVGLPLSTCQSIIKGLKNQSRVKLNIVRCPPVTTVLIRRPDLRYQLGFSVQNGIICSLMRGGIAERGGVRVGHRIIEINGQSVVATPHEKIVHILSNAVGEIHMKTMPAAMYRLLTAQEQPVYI

[9] = target: T3, Voltage-gated N-type calcium channel alpha-1B subunit/Amyloid beta A4 precursor protein-binding family A member 1; type: protein assay; remark: listed apart in the source
Large T antigen = Large T antigen (Simian virus 40, UniProt P03070); type: functional, Betapolyomavirus macacae;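 note: Confirmatory-stage PubChem screen for compounds that inhibit SV40 T antigen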
Sequence of Large T antigen (P03070 whole entry): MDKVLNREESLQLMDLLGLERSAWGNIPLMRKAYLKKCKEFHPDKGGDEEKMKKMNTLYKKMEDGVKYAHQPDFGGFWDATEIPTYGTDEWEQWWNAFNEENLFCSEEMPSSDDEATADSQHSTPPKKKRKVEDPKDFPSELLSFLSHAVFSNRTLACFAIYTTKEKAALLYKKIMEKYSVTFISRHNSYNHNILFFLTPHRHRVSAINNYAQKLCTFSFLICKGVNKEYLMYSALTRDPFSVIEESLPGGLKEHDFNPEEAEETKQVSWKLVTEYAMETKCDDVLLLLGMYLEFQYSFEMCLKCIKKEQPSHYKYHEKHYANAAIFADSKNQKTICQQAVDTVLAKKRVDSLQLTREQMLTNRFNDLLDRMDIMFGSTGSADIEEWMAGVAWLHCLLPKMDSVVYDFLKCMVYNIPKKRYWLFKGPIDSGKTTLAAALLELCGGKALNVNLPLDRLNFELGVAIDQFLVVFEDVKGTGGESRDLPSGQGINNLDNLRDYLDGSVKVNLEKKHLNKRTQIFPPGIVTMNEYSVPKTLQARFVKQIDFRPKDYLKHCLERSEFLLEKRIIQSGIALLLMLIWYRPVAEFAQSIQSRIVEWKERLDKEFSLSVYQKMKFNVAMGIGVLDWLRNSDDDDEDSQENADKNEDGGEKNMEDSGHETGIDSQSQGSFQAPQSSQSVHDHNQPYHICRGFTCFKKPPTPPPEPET

[10] = target: T4, Apoptotic protease-activating factor 1 (Homo sapiens, UniProt O14727); type: functional
T4 sequence (O14727 whole entry): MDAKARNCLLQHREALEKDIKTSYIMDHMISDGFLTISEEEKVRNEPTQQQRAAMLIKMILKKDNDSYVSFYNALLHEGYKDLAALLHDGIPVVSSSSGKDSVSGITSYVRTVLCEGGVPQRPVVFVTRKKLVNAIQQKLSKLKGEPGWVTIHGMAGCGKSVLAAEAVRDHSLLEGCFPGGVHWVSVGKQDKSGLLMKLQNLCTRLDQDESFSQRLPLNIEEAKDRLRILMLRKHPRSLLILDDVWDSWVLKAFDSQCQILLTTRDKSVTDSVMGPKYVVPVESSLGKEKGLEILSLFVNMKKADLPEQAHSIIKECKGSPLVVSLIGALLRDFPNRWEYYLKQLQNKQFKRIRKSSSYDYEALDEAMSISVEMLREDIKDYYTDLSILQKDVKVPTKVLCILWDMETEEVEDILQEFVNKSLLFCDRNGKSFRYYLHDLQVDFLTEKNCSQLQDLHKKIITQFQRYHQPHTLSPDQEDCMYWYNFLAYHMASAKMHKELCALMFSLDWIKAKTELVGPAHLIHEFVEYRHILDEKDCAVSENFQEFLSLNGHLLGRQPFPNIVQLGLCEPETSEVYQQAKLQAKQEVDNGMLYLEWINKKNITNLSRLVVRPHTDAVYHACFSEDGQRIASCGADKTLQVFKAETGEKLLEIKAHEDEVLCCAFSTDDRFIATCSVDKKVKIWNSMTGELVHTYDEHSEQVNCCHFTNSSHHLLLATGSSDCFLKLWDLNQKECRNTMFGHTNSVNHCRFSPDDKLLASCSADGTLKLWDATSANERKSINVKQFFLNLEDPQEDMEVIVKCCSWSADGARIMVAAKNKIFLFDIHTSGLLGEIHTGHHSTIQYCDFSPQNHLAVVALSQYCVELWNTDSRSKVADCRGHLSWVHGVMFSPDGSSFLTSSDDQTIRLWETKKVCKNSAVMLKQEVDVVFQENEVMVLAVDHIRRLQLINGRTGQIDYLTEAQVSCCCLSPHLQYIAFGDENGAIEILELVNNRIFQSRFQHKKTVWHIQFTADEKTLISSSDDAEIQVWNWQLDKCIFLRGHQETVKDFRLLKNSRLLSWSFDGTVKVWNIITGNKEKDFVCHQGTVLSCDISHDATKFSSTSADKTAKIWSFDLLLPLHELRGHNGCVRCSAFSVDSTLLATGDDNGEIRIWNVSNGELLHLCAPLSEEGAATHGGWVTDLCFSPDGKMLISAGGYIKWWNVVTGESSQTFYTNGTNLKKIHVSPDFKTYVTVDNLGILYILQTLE

Bcl-2-related protein A1 = target: T5, Bcl-2-related protein A1 (Mus musculus, UniProt Q07440); type: functional;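 note: confirmatory dose–response counterscreen on Bfl-1, used to check hits from a UBC13 polyubiquitin inhibitor campaign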
T5 sequence (Q07440 whole entry): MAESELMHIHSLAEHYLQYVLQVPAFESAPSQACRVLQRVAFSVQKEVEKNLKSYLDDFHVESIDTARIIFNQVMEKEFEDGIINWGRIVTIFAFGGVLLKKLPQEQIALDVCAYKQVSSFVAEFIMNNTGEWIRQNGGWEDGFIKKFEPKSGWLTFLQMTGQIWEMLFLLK

[11] = target: T6, Polyadenylate-binding protein 1 (Homo sapiens, UniProt P11940); test: MLLE domain peptide-binding blockers, IC50 – biochemical, fluorescence polarization, FITC-PAM2 peptide, dose response (AID 602259); type: functional; conditions: read-out: IC50_Mean
T6 sequence (P11940 whole entry, the tested form may be a part): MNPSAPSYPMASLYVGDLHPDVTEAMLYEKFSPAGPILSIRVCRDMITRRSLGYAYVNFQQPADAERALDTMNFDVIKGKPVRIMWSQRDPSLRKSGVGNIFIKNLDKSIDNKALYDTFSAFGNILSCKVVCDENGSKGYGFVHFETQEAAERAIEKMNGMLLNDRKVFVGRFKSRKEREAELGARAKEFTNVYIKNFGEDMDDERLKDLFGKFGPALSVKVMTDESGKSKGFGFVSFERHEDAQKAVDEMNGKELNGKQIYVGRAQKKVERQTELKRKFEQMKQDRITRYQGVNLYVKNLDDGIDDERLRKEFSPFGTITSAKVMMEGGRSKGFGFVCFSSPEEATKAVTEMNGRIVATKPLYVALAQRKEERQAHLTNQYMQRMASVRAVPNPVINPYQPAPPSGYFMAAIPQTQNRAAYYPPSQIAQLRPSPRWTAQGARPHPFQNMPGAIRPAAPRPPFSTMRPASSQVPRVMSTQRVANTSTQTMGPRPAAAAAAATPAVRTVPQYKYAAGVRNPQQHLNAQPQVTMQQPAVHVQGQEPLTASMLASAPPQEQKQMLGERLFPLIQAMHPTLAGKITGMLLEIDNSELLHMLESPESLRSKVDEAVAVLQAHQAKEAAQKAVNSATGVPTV

[12] = target: T7, Zinc finger protein mex-5 (Caenorhabditis elegans, UniProt Q9XUB2); test: potency of MEX-5 RNA-binding blockers – biochemical, C. elegans, fluorescence polarization, dose response (AID 1960)
T7 sequence (Q9XUB2 whole entry): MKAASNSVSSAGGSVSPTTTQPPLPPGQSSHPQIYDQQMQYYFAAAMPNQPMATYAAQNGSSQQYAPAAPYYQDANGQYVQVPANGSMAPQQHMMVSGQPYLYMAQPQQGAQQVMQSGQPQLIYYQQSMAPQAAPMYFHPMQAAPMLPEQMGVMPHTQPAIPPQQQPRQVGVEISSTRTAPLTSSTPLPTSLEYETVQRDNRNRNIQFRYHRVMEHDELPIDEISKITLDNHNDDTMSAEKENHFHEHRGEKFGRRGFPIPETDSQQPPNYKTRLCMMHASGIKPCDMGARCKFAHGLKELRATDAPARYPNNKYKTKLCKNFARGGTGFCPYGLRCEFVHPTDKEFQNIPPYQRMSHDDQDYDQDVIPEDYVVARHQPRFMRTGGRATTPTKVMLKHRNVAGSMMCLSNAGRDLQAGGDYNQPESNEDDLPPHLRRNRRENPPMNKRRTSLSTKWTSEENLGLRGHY

[13] = target: T8, Ubiquitin-conjugating enzyme E2 N (Homo sapiens, UniProt P61088); type: functional
T8 sequence (P61088 whole entry): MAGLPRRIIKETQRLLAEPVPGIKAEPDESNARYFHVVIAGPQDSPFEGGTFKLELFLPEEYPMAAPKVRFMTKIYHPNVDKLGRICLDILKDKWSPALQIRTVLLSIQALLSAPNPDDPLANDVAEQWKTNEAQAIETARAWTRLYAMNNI

[14] = target: T6, Polyadenylate-binding protein 1; test: MLLE binding blockers, Cy5 peptide tracer – biochemical, fluorescence polarization, Cy5-PAM2 peptide, secondary, miRNA deadenylation inhibitor project, dose response (AID 602260); type: functional; conditions: read-out: IC50_Mean
[15] = target: T9, Rac GTPase-activating protein 1 (Homo sapiens, UniProt Q9H0H5); test: blockers of MgcRacGAP-driven Rac1 GTP hydrolysis – biochemical, ADP Hunter fluorescence, primary and confirmatory, confirmation (AID 624330); type: functional
T9 sequence (Q9H0H5 whole entry): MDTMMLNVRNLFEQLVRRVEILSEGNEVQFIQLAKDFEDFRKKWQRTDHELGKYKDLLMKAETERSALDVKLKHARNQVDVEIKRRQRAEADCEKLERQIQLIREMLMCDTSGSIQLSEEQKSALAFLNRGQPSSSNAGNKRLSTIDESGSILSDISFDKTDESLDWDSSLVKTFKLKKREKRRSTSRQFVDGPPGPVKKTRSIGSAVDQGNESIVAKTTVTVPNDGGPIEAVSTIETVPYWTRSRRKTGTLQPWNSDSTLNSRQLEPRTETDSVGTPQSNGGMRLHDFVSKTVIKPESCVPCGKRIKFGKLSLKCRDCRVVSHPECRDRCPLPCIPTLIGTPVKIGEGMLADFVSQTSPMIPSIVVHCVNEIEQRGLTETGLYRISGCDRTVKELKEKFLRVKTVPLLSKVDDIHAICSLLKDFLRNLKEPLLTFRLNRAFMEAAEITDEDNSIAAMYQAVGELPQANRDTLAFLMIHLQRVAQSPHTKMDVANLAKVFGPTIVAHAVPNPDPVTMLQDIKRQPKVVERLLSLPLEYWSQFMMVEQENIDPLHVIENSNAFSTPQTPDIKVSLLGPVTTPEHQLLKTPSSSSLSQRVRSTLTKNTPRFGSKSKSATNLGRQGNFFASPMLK

[16] = target: T8, Ubiquitin-conjugating enzyme E2 N; type: functional; remark: listed apart in the source
[17] = target: T10, RNA-binding protein pos-1 (Caenorhabditis elegans, UniProt G5EF15); test: disruptors of C. elegans POS-1 RNA interaction – biochemical, fluorescence polarization, dose response (AID 1964);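 note: purified POS-1 fused to maltose binding protein made in E. coli; potency of compounds blocking POS-1 binding to fluorescent RNA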
T10 sequence (G5EF15 whole entry): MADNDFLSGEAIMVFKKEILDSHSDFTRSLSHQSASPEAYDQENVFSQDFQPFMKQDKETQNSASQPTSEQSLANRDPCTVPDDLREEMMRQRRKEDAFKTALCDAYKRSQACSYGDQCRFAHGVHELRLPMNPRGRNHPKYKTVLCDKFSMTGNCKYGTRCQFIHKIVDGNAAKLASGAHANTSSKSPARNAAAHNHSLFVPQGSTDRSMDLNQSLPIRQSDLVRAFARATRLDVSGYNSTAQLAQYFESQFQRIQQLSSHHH

SMILES	IC50 (Orexin receptor type 2 [3])	IC50 [4]	IC50 [5]	IC50 (CHO-K1)	IC50 (Orexin receptor type 2 [6])	IC50 [7]	further results
O=c1c2ccccc2oc2ccc(NCCCN3CCOCC3)cc12							AC50 [1]: 34.2 µM (active)
CN1c2ccc(-c3cccc(F)c3)cc2[C@H]2[C@H](CCN2C(=O)C2CC2)[C@H]1CO							AC50 [2]: 0.134 µM (active)
Cc1ccccc1NC(=O)C1CCCN1S(=O)(=O)c1ccccc1C(F)(F)F (stereo not drawn)	2.34 µM (active)	0.352 µM (active)	> 49.8 µM (inactive)	> 66.2 µM (inactive)	10.1 µM (inactive)	4.95 µM (active)	
COC(=O)C1=C(c2ccccc2OCc2ccccc2)C[C@@H]2CC[C@H]1N2C(=O)NCCOc1ccccc1Cl	> 50 µM (inactive)	3.71 µM (active)	48.6 µM (inactive)	> 66.2 µM (inactive)	3.9 µM (active)	> 16.6 µM (inactive)	
CO/C(O)=C1\C(C)=Nc2sc(C(N)=O)c(N)c2C1c1ccncc1 (stereo not drawn)							AC50 [2]: 4.4 µM (active)
CC1(C)[N+]([O-])=c2ccc([N+](=O)[O-])cc2=[N+]1[O-].NO							IC50 [8]: 0.26 µM (active); IC50 [9]: 22.1 µM (active); IC50 (Large T antigen): 6.55 µM (active); IC50 [10]: 11.7 µM (active)
Oc1ccc(NC(=S)N=Nc2c(O)[nH]c3ccccc23)cc1	> 50 µM (inactive)	3.24 µM (active)	> 49.8 µM (inactive)	> 66.2 µM (inactive)	> 88.8 µM (inactive)	43.6 µM (inactive)	IC50 (Bcl-2-related protein A1): > 20 µM (inactive); IC50 [11]: > 66 µM (inactive); EC50 [12]: 3.98 µM (active); IC50 [13]: 0.763 µM (active); IC50 [14]: > 66 µM (inactive); IC50 [15]: 21.5 µM (active); IC50 [16]: 2.17 µM (active); EC50 [17]: 16.3 µM (active)
